Experimental data from patent US5905068A, “Retroviral protease inhibiting compounds” (Abbott Laboratories, priority 1996, dated 1999).

Legend:
[1] = molecular target: HIV-1 protease (Human immunodeficiency virus type 1 group M subtype B, UniProt P04585); assay: Fluorogenic Assay for Screening Inhibitors of HIV Protease; details: pH 4.5
[2] = Cytotoxicity in uninfected MT4 cells (MTT); type: cell-based; details: human, 5 days, n=four duplicate determinations, read-out: CTC50 (50% cytotoxicity concentration)
Outline: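 Uninfected MT4 cells, 1×10^4 per well, incubated 5 days at 37 °C with half-log compound dilutions. Viability read by MTT-type OD at 570/650 nm after SDS/HCl lysis overnight. CTC50 taken as 50% cytotoxicity concentration.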

[3] = test system: HIVIIIB; assay: Antiviral Activity: anti-HIV activity in MT4 cells infected with HIVIIIB (MTT); type: cell-based; details: Human immunodeficiency virus 1, 120 h, MOI 0.003, 5 days, n=four duplicate determinations
Outline: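 MT4 cells infected 1 h with HIVIIIB at 0.003 MOI, washed, seeded at 1×10^4 cells/well with half-log compound dilutions in RPMI 1640 plus 10% FBS and added human serum (final 60%, 35% or 22.5% total serum), 5 days at 37 °C. Viability read by MTT at 570/650 nm; EC50 by median effect equation, CTC50 on uninfected MT4 cells.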

[4] = Effect of ritonavir on pharmacokinetics of the co-administered compound of this invention; type: in vivo; details: ritonavir in combination with a compound of this invention

Row | SMILES | inhibition at 0.0005 µM [1] | EC50 [3] | CC50 at 120 h [2] | also measured
1 | O=C(N[C@@H](Cc1ccccc1)C[C@H](O)[C@H](Cc1ccccc1)NC(=O)O[C@@H]1CO[C@@H]2OCC[C@@H]21)O[C@H]1CO[C@H]2OCC[C@H]21 [Example 23, (2S,3S,5S)-2-((3S,3aR,6aS)-bis-tetrahydrofuran-3-yl-oxycarbonyl)amino-5-((3R,3aS,6aR)-bis-tetrahydrofuran-3-yl-oxycarbonyl)amino-1,6-diphenyl-3-hydroxyhexane] | 39% | 891 nM | > 100000 nM | –
2 | Cc1ccc(N)c(C)c1OCC(=O)N[C@@H](Cc1ccccc1)C[C@H](O)[C@H](Cc1ccccc1)NC(=O)O[C@H]1CO[C@H]2OCC[C@H]21 [Example 16, (2S,3S,5S)-5-(2,6-Dimethyl-3-amino-phenoxyacetyl)amino-2-((3R,3aS,6aR)-bis-tetrahydrofuran-3-yl-oxycarbonyl)amino-1,6-diphenyl-3-hydroxyhexane] | 87% | < 32 nM | > 100000 nM | –
3 | Cc1cc(N)cc(C)c1SCC(=O)N[C@@H](Cc1ccccc1)C[C@H](O)[C@H](Cc1ccccc1)NC(=O)O[C@H]1CO[C@H]2OCC[C@H]21 [Example 17, 5-(2,6-Dimethyl-4-amino-phenylthioacetyl)amino-2-((3R,3aS,6aR)-bis-tetrahydrofuran-3-yl-oxycarbonyl)amino-1,6-diphenyl-3-hydroxybexane] | – | 5790 nM | 56000 nM | inhibition at 0.001 µM [1]: 50%
4 | Cc1cccc(C)c1OCC(=O)N[C@@H](Cc1ccccc1)[C@@H](O)C[C@H](Cc1ccccc1)NC(=O)OC1CCSC1 (mixture of isomers) [Example 30, (2S,3S,5S)-2-(2,6-Dimethylphenoxyacetyl)amino-5-(3(R,S)-tetrahydrothienyloxycarbonyl)amino-1,6-diphenyl-3-hydroxyhexane] | 52% | 1000 nM | 13500 nM | –
5 | Cc1cccc(C)c1N(C)CC(=O)N[C@@H](Cc1ccccc1)C[C@H](O)[C@H](Cc1ccccc1)NC(=O)O[C@H]1CO[C@H]2OCC[C@H]21 [Example 13, (2S,3S,5S)-5-(N-(2,6-Dimethyl-phenyl)-N-methyl-aminoacetyl)amino-2-((3R,3aS,6aR)-bis-tetrahydrofuran-3-yl-oxycarbonyl)amino-1,6-diphenyl-3-hydroxyhexane] | – | 2910 nM | 18000 nM | inhibition at 0.0024 µM [1]: 50%
6 | Cc1ncnc(C)c1OCC(=O)N[C@@H](Cc1ccccc1)C[C@H](O)[C@H](Cc1ccccc1)NC(=O)O[C@H]1CO[C@H]2OCC[C@H]21 [Example 8, (2S,3S,5S)-5-(4,6-Dimethyl-pyrimidinyl-5-oxyacetyl)amino-2-((3R,3aS,6aR)-bis-tetrahydrofuran-3-yl-oxycarbonyl)amino-1,6-diphenyl-3-hydroxyhexane] | 56% | 815 nM | > 100000 nM | –
7 | Cc1cc(C)c(OCC(=O)N[C@@H](Cc2ccccc2)C[C@H](O)[C@H](Cc2ccccc2)NC(=O)O[C@H]2CO[C@H]3OCC[C@H]32)c(C)c1 [Example 11, (2S,3S,5S)-5-(2,4,6-Trimethyl-phenoxyacetyl)amino-2-((3R,3aS,6aR)-bis-tetrahydrofuran-3-yl-oxycarbonyl)amino-1,6-diphenyl-3-hydroxyhexane] | 82% | 205 nM | 48000 nM | –
8 | CC(C)c1nc(CN(C)C(=O)N[C@H](C(=O)N[C@@H](Cc2ccccc2)C[C@H](O)[C@H](Cc2ccccc2)NC(=O)OCc2cncs2)C(C)C)cs1 [ritonavir] | – | – | – | blood levels of the co-administered compound of this invention [4]: increases blood levels; half-life of the co-administered compound of this invention [4]: increases half-life; time to peak plasma concentration of the co-administered compound of this invention [4]: increases the time to peak plasma concentration
9 | Cc1cc(N(C)C)cc(C)c1OCC(=O)N[C@@H](Cc1ccccc1)C[C@H](O)[C@H](Cc1ccccc1)NC(=O)O[C@H]1CO[C@H]2OCC[C@H]21 [Example 15, 5-(2,6-Dimethyl-4-N, N-dimethylamino-phenoxyacetyl)amino-2-((3R,3aS,6aR)-bis-tetrahydrofuran-3-yl-oxycarbonyl)amino-1,6-diphenyl-3-hydroxyhexane] | 43% | 160 nM | 46000 nM | –
10 | Nc1ccc(Cl)c(C(=O)N[C@@H](Cc2ccccc2)[C@@H](O)C[C@H](Cc2ccccc2)NC(=O)O[C@@H]2CO[C@@H]3OCC[C@@H]32)c1 [Example 63, (2S,3S,5S)-2-(3-Amino-6-chloro-benzoyl)amino-5-((3S,3aR,6aS)-bis-tetrahydrofuran-3-yl-oxycarbonyl)amino-1,6-diphenyl-3-hydroxyhexane] | – | 1560 nM | > 100000 nM | inhibition at 0.0029 µM [1]: 50%
11 | CC(C)c1nc(COC(=O)N[C@H](C(=O)N[C@@H](Cc2ccccc2)C[C@H](O)[C@H](Cc2ccccc2)NC(=O)OC2COC3OCCC23)C(C)C)cs1 (stereo partly drawn) [Example 37] | 83% | 14 nM | > 100000 nM | –
12 | Cc1cccc(C)c1NCC(=O)N[C@@H](Cc1ccccc1)[C@@H](O)C[C@H](Cc1ccccc1)NC(=O)O[C@H]1CO[C@H]2OCC[C@H]21 [Example 9, (2S,3S,5S)-5-(N-(2,6-Dimethyl-phenyl)aminoacetyl)amino-2-((3R,3aS,6aR)-bis-tetrahydrofuran-3-yl-oxycarbonyl)amino-1,6-diphenyl-3-hydroxyhexane] | 69% | 253 nM | 56000 nM | –
13 | CC(C)[C@H](NC(=O)OCc1cncs1)C(=O)N[C@@H](Cc1ccccc1)C[C@H](O)[C@H](Cc1ccccc1)NC(=O)O[C@H]1CO[C@H]2OCC[C@H]21 [Example 42, (2S,3S,5S)-5-(N-(N-((5-Thiazolyl)methoxycarbonyl)-L-valinyl)amino)-2-((3R,3aS,6aR)-bis-tetrahydrofuran-3-yl-oxycarbonyl)amino-1,6-diphenyl-3-hydroxyhexane] | 80% | 70 nM | > 100000 nM | –

More lines, main results first:

Row | inhibition at 0.0005 µM [1] | EC50 [3] | SMILES | CC50 at 120 h [2] | also measured
14 | 78% | 120 nM | O=C(N[C@@H](Cc1ccccc1)[C@@H](O)C[C@H](Cc1ccccc1)NC(=O)c1ccc(O)cc1Cl)O[C@H]1CO[C@H]2OCC[C@H]21 [Example 57, (2S,3S,5S)-5-(2-Chloro-4-hydroxy-benzoyl)amino-2-((3R,3aS,6aR)-bis-tetrahydrofuran-3-yl-oxycarbonyl)amino-1,6-diphenyl-3-hydroxyhexane] | 80900 nM | –
15 | 65% | 233 nM | O=C(N[C@@H](Cc1ccccc1)C[C@H](O)[C@H](Cc1ccccc1)NC(=O)c1ccccc1)O[C@H]1CO[C@H]2OCC[C@H]21 [Example 68, (2S,3S,5S)-2-(Benzoyl)amino-5-((3R,3aS,6aR)-bis-tetrahydrofuran-3-yl-oxycarbonyl)amino-1,6-diphenyl-3-hydroxyhexane] | > 32000 nM | –
16 | 82% | 11 nM | O=C(N[C@@H](Cc1ccccc1)[C@@H](O)C[C@H](Cc1ccccc1)NC(=O)c1ccc(O)cc1)O[C@H]1CO[C@H]2OCC[C@H]21 [Example 55, (2S,3S,5S)-5-(4-Hydroxy-benzoyl)amino-2-((3R,3aS,6aR)-bis-tetrahydrofuran-3-yl-oxycarbonyl)amino-1,6-diphenyl-3-hydroxyhexane] | 49500 nM | –
17 | 72% | 101 nM | Nc1ccc(C(=O)N[C@@H](Cc2ccccc2)[C@@H](O)C[C@H](Cc2ccccc2)NC(=O)O[C@H]2CO[C@H]3OCC[C@H]32)c(Cl)c1 [Example 71, (2S,3S,5S)-2-(4-Amino-2-chloro-benzoyl)amino-5-((3R,3aS,6aR)-bis-tetrahydrofuran-3-yl-oxycarbonyl)amino-1,6-diphenyl-3-hydroxyhexane] | > 100000 nM | –
18 | 66% | 30 nM | CC(C)c1nc(COC(=O)N[C@@H](C(=O)N[C@@H](Cc2ccccc2)C[C@H](O)[C@H](Cc2ccccc2)NC(=O)OC2COC3OCCC23)C(C)C)cs1 (stereo partly drawn) [Example 36] | 27800 nM | –
19 | 80% | 157 nM | Cc1cc2ncoc2c(C)c1OCC(=O)N[C@@H](Cc1ccccc1)C[C@H](O)[C@H](Cc1ccccc1)NC(=O)O[C@H]1CO[C@H]2OCC[C@H]21 [Example 26, (2S,3S,5S)-5-(4,6-Dimethyl-benzoxazol-5-yloxy-acetyl)amino-2-((3R,3aS,6aR)-bis-tetrahydrofuran-3-yl-oxycarbonyl)amino-1,6-diphenyl-3-hydroxyhexane] | 29800 nM | –
20 | 80% | 11 nM | CC(C)c1nc(CN(C)C(=O)N[C@H](C(=O)N[C@@H](Cc2ccccc2)C[C@H](O)[C@H](Cc2ccccc2)NC(=O)O[C@@H]2CO[C@@H]3OCC[C@@H]32)C(C)C)cs1 [Example 48, (2S,3S,5S)-5-(N-(N-((N-Methyl-N-((2-isopropyl-4-thiazolyl)methyl)amino)carbonyl)-L-valinyl)amino)-2-((3S,3aR,6aS)-bis-tetrahydrofuran-3-yl-oxycarbonyl)amino-1,6-diphenyl-3-hydroxyhexane] | 46600 nM | –
21 | 53% | 140 nM | O=C(N[C@@H](Cc1ccccc1)[C@@H](O)C[C@H](Cc1ccccc1)NC(=O)O[C@@H]1CO[C@@H]2OCC[C@@H]21)OCc1cncs1 [Example 38, (2S,3S,5S)-2-((5-Thiazolyl)methoxycarbonyl)amino-5-((3S,3aR,6aS)-bis-tetrahydrofuran-3-yl-oxycarbonyl)amino-1,6-diphenyl-3-hydroxyhexane] | > 100000 nM | –
